Assay results as given in paper PMC8921834, “Septins tune lipid kinase activity and PI(4,5)P2 turnover during G-protein–coupled PLC signalling in vivo” (Life Science Alliance, 2022).

Target: T1, dPIP5K^L (Drosophila melanogaster, UniProt A0A6M3Q9L5)
T1 construct: gene PIP5K59B; full-length long isoform, 897 residues, about 100 kD; cDNA from fly retinae in pUAST-attB, transiently expressed in Drosophila S2R+ cells; lysate assayed
Experiment: in vitro lipid kinase assay, LC-MS/MS of product:substrate ratio
Type: biochemical
Details: S2R+ lysate 10 μg; 600 pmol PI4P with phosphatidylserine micelles; ATP (40 μM in 2x buffer), pH 7.4, 30 °C, 30 min

T1 sequence (A0A6M3Q9L5 1-891): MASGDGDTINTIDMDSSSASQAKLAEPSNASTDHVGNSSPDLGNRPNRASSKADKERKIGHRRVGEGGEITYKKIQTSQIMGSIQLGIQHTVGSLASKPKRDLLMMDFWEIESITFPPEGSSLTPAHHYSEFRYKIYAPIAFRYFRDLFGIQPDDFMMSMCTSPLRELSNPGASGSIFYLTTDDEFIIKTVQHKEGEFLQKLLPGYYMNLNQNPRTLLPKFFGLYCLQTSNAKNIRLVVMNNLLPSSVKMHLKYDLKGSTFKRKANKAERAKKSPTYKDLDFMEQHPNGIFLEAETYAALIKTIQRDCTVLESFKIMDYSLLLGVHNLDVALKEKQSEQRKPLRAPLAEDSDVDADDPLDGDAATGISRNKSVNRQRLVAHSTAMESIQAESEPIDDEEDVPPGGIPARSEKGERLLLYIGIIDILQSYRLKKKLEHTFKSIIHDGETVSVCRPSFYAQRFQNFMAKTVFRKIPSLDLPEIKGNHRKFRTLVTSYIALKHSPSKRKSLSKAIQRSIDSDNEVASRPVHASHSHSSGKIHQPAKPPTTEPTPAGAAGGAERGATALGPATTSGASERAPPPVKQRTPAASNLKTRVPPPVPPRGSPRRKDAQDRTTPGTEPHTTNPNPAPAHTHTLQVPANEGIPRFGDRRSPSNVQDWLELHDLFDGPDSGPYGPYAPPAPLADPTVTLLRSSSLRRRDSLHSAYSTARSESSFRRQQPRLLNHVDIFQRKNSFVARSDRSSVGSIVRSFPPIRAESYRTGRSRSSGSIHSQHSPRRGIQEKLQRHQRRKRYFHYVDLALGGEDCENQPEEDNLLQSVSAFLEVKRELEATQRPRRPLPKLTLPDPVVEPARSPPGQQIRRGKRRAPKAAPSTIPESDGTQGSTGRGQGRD

## CCCCC/C=C\C/C=C\C/C=C\C/C=C\CCCC(=O)O[C@H](COC(=O)CCCCCCCCCCCCCCCC)COP(=O)(O)O[C@H]1[C@H](O)[C@@H](O)[C@H](OP(=O)(O)O)[C@@H](O)[C@H]1O [37:4 PI4P]
  response ratio: response ratio of dPIP5K^L transfected lysates was significantly higher
